Patent US12318402B2, “Composition for treating or preventing colitis by NAMPT metabolic regulation” (AJOU UNIVERSITY INDUSTRY-ACADEMIC COOPERATION FOUNDATION, priority 2021, dated 2025)

What was measured:
BMDM [1] = assay: pHrodo green E. coli Bioparticles phagocytosis assay in BMDM; format: cell-based, mouse; settings: for pHrodo intensity: BMDM of WT mice, FIG. 10B, 10D, 11B-11D
Procedure: (§1) pHrodo™ green-conjugated E. coli Bioparticles™ were diluted in serum medium, incubated for 30 minutes and washed twice with PBS. Cells were incubated for the time indicated in the manufacturer's instructions and analyzed using a FACS Canto II flow cytometer (BD) or fluorescence microscope (DFC3000G; Leica, Wetzlar, Germany).
(§2) Pulse and chase phagocytosis assays were performed using pHrodo green to compare phagocytic activity between macrophages of WT and KO mice. In FIG. 11A, there was an increase in the intensity of the green fluorescence signal in the BMDM of WT mice, indicating the gradual maturation and fusion of phagosomes containing pHrodo green with lysosomes.

BMDM [2] = assay: NAD+ level measurement in BMDM; format: cell-based, mouse
Procedure: (§3) Bone marrow derived macrophages (hereinafter referred to as BMDM) were harvested, and according to the manufacturer's instructions, EnzyChrom NAD^+/NADHA assay Kit (Bioassay Systems, Hayward, CA, USA), Elite NADPH Assay Kit (eEnzyme, Gaithersburg, MD, USA) and Cell Titer-Glo® Luminescent Cell Viability assay (Promega, Madison, WI, USA) were used for analysis.
(§4) Since NAD^+ is an important cofactor in ATP production, ATP levels were measured during LPS treatment. […] However, the NADPH level in NAMPT-depleted macrophages was reduced by 21%.

BMDM [3] = assay: NADPH level measurement in macrophages (BMDM); format: cell-based, mouse
Procedure: as §3, §4

DSS-induced colitis = DSS-induced colitis model in NAMPT KO mice with NMN administration; format: in vivo, mouse
Excerpt: Nampt^f/f mice (C57BL6), which have two loxP sites adjacent to exon 5, were crossed with LyzM-Cre mice (C57BL6) to specifically knock out (KO) NAMPT in myeloid cell lineages including macrophages (Nampt^f/fLyzMCre^+/− mice; hereinafter referred to as KO mice). KO mice (heterozygous) were used as mice knocked out of bone marrow-specific NAMPT, and Nampt^f/f mice (wild type; hereinafter referred to as WT mice) were used as controls. The mice were stored at the Ajou University Laboratory Animal Research Center and preserved according to the guidelines of the Institution's Animal Care and Use Committee, which approved all animal procedures (2020-0013).
Age- and gender-matched WT mice and KO mice were administered with 2.5% DSS (MP Biomedicals, Santa Ana, CA, USA) for 7 days and then allowed to recover for 7 days. Colitis severity was determined daily through a scoring system based on the sum of scores for the following parameters: weight loss (0 points=no weight loss/weight gain, 1=5 to 10% weight loss, 2=11 to 15% weight loss, 3=16 to 20% weight loss, and 4=21% or more weight loss); stool consistency (score of 0=normal and well formed, 2=very soft and not formed, and 4=loose stool); and hemorrhagic stool score (0=normal colored stool, 2=red colored stool, 4=bloody stool). The disease activity index (DAI) ranged from 0 to 12.
Histology was scored blindly using a semi-quantitative scoring system based on the sum of scores for the following parameters: presence of ulceration: 0=none, 1=present but very slight, 2=minimal, 3=moderate, 4=widespread; presence of inflammation: 0=none, 1=minimal, 2=mild, 3=moderate, 4=severe; degree of inflammation: 0=none, 1=mucosal, 2=mucosal+submucosal, 3=mucosal+submucosal+muscle penetration, 4=full thickness invasion. Immunohistochemistry was performed using rabbit anti-NAMPT (Bethyl Laboratories, TX, USA), rabbit anti-Ki-67 (Abcam, Cambridge, UK), rabbit anti-cleaved caspase 3 (Cell Signaling Technology), mouse anti-CD326 (EpCAM)-APC (Invitrogen) and mouse anti-F4/80 (Abcam) antibodies.
Apoptosis was assessed by the TUNEL assay using the Apoptag plus in situ apoptosis fluorescein detection kit (Merck) according to the manufacturer's instructions. TUNEL positive signals were corrected to total nuclear signals for each field. The phagocytic cells were stained using the Apoptag ISOL dual fluorescence apoptosis detection kit (Millipore) according to the manufacturer's instructions. The stained samples were then incubated overnight with mouse anti-F4/80 antibodies. Fluorescence images were obtained by a confocal microscope (A1R HD25, Nikon, Tokyo, Japan) and a slide scanner (Axioscan, Zeiss, Germany).

[4] = mouse, in vivo
Excerpt: It was further elucidated whether there was any clear cytotoxic effect by NMN injection in mice.

BMDM [5] = assay: M1/M2 macrophage polarization of BMDM (FACS, Western blot); format: cell-based, mouse
Procedure: The cell suspension of Example 4 was stained with various combinations of fluorochrome-conjugated antibodies on ice for 20 minutes under dark conditions, wherein the antibodies included anti-CD45 (30-F11), anti-CD1 lb (M1/70), anti-F4/80 (BM8), anti-Ly6G (1A8), anti-Ly6C (HK1.4), anti-MHC II (M5/114.15.2), anti-CD11c (N418), anti-CD206 (MMR) and anti-CD86 (GL-1) (all purchased from Biolegend, San Diego, CA, USA). Samples were obtained from the FACS Canto II Flow Cytometer (BD, Franklin Lakes, NJ, USA). Data were analyzed using FlowJo™ Software (BD).
Next, it was determined whether NAMPT is involved in the polarization of M1 and M2 macrophages.

RAW264.7 cells = assay: pHrodo green phagocytosis assay in RAW264.7 cells; format: cell-based; settings: FIG. 10C, 10D, 11D
Procedure: as §1, §2

Raw 264.7 cells = assay: ROS measurement in Raw 264.7 cells upon LPS; format: cell-based; settings: FIG. 10H
BMDMs = assay: ROS measurement in LPS- and IFN-γ-activated BMDMs; format: cell-based, mouse; settings: FIG. 13B
Procedure: BMDM or peritoneal macrophages were incubated with HBSS containing 5 μM CM-H2DCFDA (Invitrogen, Carlsbad, CA, USA) for 15 min at 37° C. To measure mitochondrial reactive oxygen species levels, cells were incubated with 5 μM MitoSOX (Invitrogen) for 15 minutes. FACS Canto II (BD) was used to monitor fluorescence levels.

[6] = macrophages of KO mice, NMN with/without 6AN, FIG. 12I
[7] = NAMPT KO mice, 2.5% DSS, 500 mg/kg i.p.

## NC(=O)c1ccc[n+]([C@@H]2O[C@H](COP(=O)([O-])O)[C@@H](O)[C@H]2O)c1 [NMN, nicotinamide mononucleotide]
BMDM [1]; BMDM of KO mice
  pHrodo fluorescence intensity: restored fluorescence intensity
BMDM [2]; after NAMPT knock out or FK866 treatment, FIG. 12B
  NAD+ levels: restored the phenotype
BMDM [3]; in LPS treatment, FIG. 12G
  NADPH levels: increased NADPH levels
BMDM [3]; [6]
  NADPH levels: restored NADPH levels
BMDM [3]; macrophages of KO mice, FIG. 12D, 12E
  NADPH levels: increased NADPH levels
DSS-induced colitis; NAMPT KO mice, 2.5% DSS, 500 mg/kg NMN i.p. 3 times a week, 8 out of 12
  survival: 67%
DSS-induced colitis; [7]
  DAI: restored
  weight loss: restored
DSS-induced colitis; colon tissue, FIG. 14F
  F4/80+ macrophage population: decrease
  Ki-67+ cells: increased
  positive signals of TUNEL: decreased
  positive signals of cleaved caspase 3: decreased
[4]
  abnormalities in the colon, liver and spleen at the microscopic level: no abnormalities
  serum ALT level: similar
  serum AST level: similar

## O=C(/C=C/c1cccnc1)NCCCCC1CCN(C(=O)c2ccccc2)CC1 [FK866]
BMDM [5]; BMDM treated with LPS/IFN-γ or IL-4, FACS, FIG. 7A, 7B
  polarization of M1 and M2 macrophages: did not result in polarization of M1 and M2 macrophages
BMDM [5]; Western blot, FIG. 7D
  expression of M1 and M2 macrophage-specific markers: did not affect
BMDM [1]
  pHrodo intensity: decreased
RAW264.7 cells
  pHrodo intensity: reduced pHrodo intensity
Raw 264.7 cells; response to LPS
  ROS production: partially inhibited
BMDM [2]; FIG. 12B
  NAD+ levels: significantly reduced
BMDM [2]; LPS treatment
  NAD+ levels: further decrease
BMDM [3]; in LPS treatment, FIG. 12G
  NADPH levels: further decrease in NADPH levels

## NC(=O)c1ccc(N)nc1 [6AN, 6-aminonicotinamide]
BMDM [3]; 6AN during LPS challenge, FIG. 12J
  NADPH levels: further reduced NADPH levels
BMDM [3]; [6]
  NADPH levels: blocked
BMDM [3]; macrophages of WT mice, FIG. 12H
  NADPH levels: reduced NADPH levels in a dose-dependent manner
BMDMs
  ROS levels: decrease in ROS levels

## CO/C1=C\C(C)=C\[C@@H](C)[C@@H](O)[C@@H](C)C/C(C)=C/C=C/[C@H](OC)[C@@H]([C@@H](C)[C@@H](O)[C@H](C)[C@@]2(O)C[C@@H](O)[C@H](C)[C@@H](C(C)C)O2)OC1=O [Baf A1, bafilomycin A1]
BMDM [1]
  pHrodo intensity: reduced the fluorescence intensity
RAW264.7 cells
  pHrodo intensity: reduced the fluorescence intensity

## NC(=O)c1ccc[n+]([C@@H]2O[C@H](COP(=O)([O-])OP(=O)(O)OC[C@H]3O[C@@H](n4cnc5c(N)ncnc54)[C@H](O)[C@@H]3O)[C@@H](O)[C@H]2O)c1 [NAD^+, nicotinamide adenine dinucleotide]
Raw 264.7 cells; LPS, FK866, NAD+ co-treatment
  inhibitory effect of FK866 on ROS production: recovered
